Experimental data reported in US20030026781A1, “Compositions and methods for regulating endogenous inhibitor of ATP synthase, including treatment for diabetes” (MitoKor, priority 1999, published 2003).
Where “and” joins values, the source holds several entries; their conditions need not be identical. Equal values may be shown once. Ends that are not written are not given here.

Legend:
F0-F1-ATPase = molecular target: T1, F0-F1-ATPase (Bos taurus, UniProt P00829+P19483); assay: ATP hydrolysis by purified F0-F1-ATPase; type: biochemical; settings: bovine cardiac F0-F1-ATPase
T1 construct: F0-F1 ATPase complexes and F1 ATPase subcomplexes were isolated from bovine cardiac samples; from tissue; host or cells: bovine heart (from alkaline submitochondrial particles, method of Walker et al. 1995)
Experimental: (§1) F0-F1 ATPase complexes and F1 ATPase subcomplexes were isolated from bovine cardiac samples essentially according to the method of Walker et al. (Methods in Enzymology 260:163-190, 1995), with the exception that, instead of preparing SMPs (submitochondrial particles) at neutral pH, ASMPs (alkaline submitochondrial particles; see Rouslin and Broge, Anal. Biochem. 222:68-75, 1994) were prepared from bovine heart by sonication in a basic solution. The ASMPs were extracted with chloroform and used to prepare F0-F1 ATPase and F1 ATPase according to the method of Walker et al. (Methods in Enzymology 260:163-190, 1995).
(§2) One assay for ATPase activity involves measuring ATP hydrolysis according to methods known in the art (Walker et al., Methods in Enzymology 260:163-190, 1995; Rouslin and Broge, Anal. Biochem. 222:68-75, 1994). Such assays can be performed using purified F0-F1 ATPase complexes or F1 ATPase subcomplexes, or using alkaline submitochondrial particles (ASMPs).
In like fashion, the two IF1 polypeptide derivatives were tested for their ability to inhibit the purified F1-ATPase and F0-F1-ATPase. The results (FIG. 5) indicate that both synthetic polypeptides inhibited the F1 ATPase. […]

purified F1-ATPase = molecular target: T2, purified F1-ATPase (Bos taurus, UniProt P00829+P19483); assay: ATP hydrolysis by purified F1-ATPase; type: biochemical; settings: bovine cardiac F1-ATPase; read-out: IC50 for inhibition of ATP hydrolysis by purified F1-ATPase
T2 construct: F1 ATPase subcomplexes were isolated from bovine cardiac samples; from tissue; host or cells: bovine heart (alkaline submitochondrial particles, chloroform extraction, method of Walker et al. 1995)
Experimental: as §1, §2
In an initial experiment to validate the reagents and assay system, Aurovertin-B was used as a positive control. This antibiotic binds to and inhibits the activity of bacterial and mitochondrial ATPases (van Raaij et al., Proc. Natl. Acad. Sci. US.A. 93:14 6913-14 6917, 1996). The purified F1-ATPase described in the preceding Example was treated with varying concentrations of Aurovertin-B, and ATP hydrolyis was measured.

INS-1 cells [1] = assay: Glucose-responsive insulin secretion by INS-1 cells depleted of mtDNA; type: cell-based, rat; settings: cells treated with ddC (10 μM) for over 20 days; any glucose level tested
Experimental: INS-1 cells, or ρ^0 INS-1 cells generated using ddC as described above, were seeded into 12-well plates containing RPMI media supplemented as described at 0.5×10^6 cells/well and cultured at 37° C., 5% CO2 for 2 days. Cells (0.7×10^6 cells/well were rinsed with glucose-free KRH buffer (134 mM NaCl, 4.7 mM KCl, 1.2 mM KH2PO4, 1.2 mM MgSO4, 1.0 mM CaCl2, 10 mM HEPES, 10 mM NaHCO3, 0.5% BSA), then incubated in the same buffer for 1 hr at 37° C. in a humidified 5% CO2/95% air atmosphere. Fresh KRH buffer containing 0.5 mM isobutylmethyl xanthine and the following secretagogues was added: 5 mM glucose, 10 mM glucose, 20 mM glucose, 5 mM KCl or 20 mM KCl. After an additional 1 hr at 37° C., 5% CO2 the culture supernatants were collected. Insulin concentrations in the supernatants were measured and normalized to cell number using an insulin-specific radioimmunoassay kit (ICN Biochemicals, Irvine, Calif.) according to the manufacturer's instructions.

INS-1 cells [2] = assay: Mitochondrial DNA content of INS-1 cells by slot blot with COX-I probe; settings: for effect on mtDNA content: INS-1 cells incubated for seven days with nucleoside analog

LAALKKHHEDEIDHHSK [IF1(42-58)]
IC50 (F0-F1-ATPase; read-out: IC50 for inhibition of purified F0-F1-ATPase): ~180 nM and 180 nM

CC[C@H]1O[C@]2(C)[C@H](OC(C)=O)[C@@]1(C)O[C@@H](/C=C/C=C/C=C/c1oc(=O)cc(OC)c1C)[C@@H]2O [Aurovertin-B]
IC50 (purified F1-ATPase): 850 nM

Nc1ccn([C@H]2CC[C@@H](CO)O2)c(=O)n1 [ddC, 2′3′-dideoxycytidine]
glucose stimulated insulin secretion (INS-1 cells [1]): not observed
effect on mtDNA content (INS-1 cells [2]): decreased mtDNA content in a dose-dependent fashion
mtDNA detection (INS-1 cells [2]; INS-1 cells incubated with 25 ∥M ddC, after 21 days): undetectable
IC50 (INS-1 cells [2]; read-out: IC50 for decrease of mtDNA content, INS-1 cells, seven days): ~50000 nM

O=c1[nH]cnc2c1ncn2[C@H]1CC[C@@H](CO)O1 [ddI, 2′3′-dideoxyinosine]
effect on mtDNA content (INS-1 cells [2]): decreased mtDNA content in a dose-dependent fashion

FGKREKAEEDRYFREKTREQLAALK [IF1(22-46)]
IC50 for inhibition of purified F0-F1-ATPase (F0-F1-ATPase): no effect

Cc1cn([C@H]2C=C[C@@H](CO)O2)c(=O)[nH]c1=O [d4T]
effect on mtDNA content (INS-1 cells [2]): decreased mtDNA content in a dose-dependent fashion
